Values after ≈ are worked out from the molar mass of the structure shown.
Legend:
[1] = DPPH radical scavenging method (antioxidant activity); conditions: for IC50ug/ml (DPPH scavenging): 0.1 mM DPPH in ethanol, 30 minutes, absorbance 517 nm, triplicate; for IC50: IC50 ug/ml converted with molecular wt
Procedure: The antioxidant activity of the newly synthesized compounds was evaluated using DPPH (2, 2-diphenyl-1-picrylhydrazyl (DPPH) assay). This assay measures the ability of a compound to neutralize the stable free radical DPPH by donating an electron or hydrogen atom. The results are illustrated in Table 2 and Fig 3. All the tests and analyses were undertaken in three replicates, and the results were averaged.
Different compounds’ free radical scavenging activity was measured by 1, 1- diphenyl-2-[…] (DPPH). In brief, a 0.1 mM solution of DPPH in ethanol was prepared. This solution (1 ml) was added to 3 ml. of the different compounds in ethanol at various concentrations (3.9, 7.8, 15.62, 31.25, 62.5, 125, 250, 500, 1000 μg/ml). Here, only those compounds solubilized in ethanol and their various concentrations were prepared by dilution. The mixture was shaken vigorously and allowed to stand at room temperature for 30 minutes. Then, absorbance was measured at 517 nm by using a spectrophotometer (UV-VIS Milton Roy). The reference standard compound used was ascorbic acid, and the experiment was done in triplicate. The IC 50 value of the sample, which is the concentration of sample required to inhibit 50% of the DPPH free radical, was calculated using the Log dose inhibition curve. The lower absorbance of the reaction mixture indicates higher free radical activity. The percent DPPH scavenging effect was calculated using the following equation: DPPH scavenging effect (%), or percent inhibition = A0 - A 1/ A0 × 100. A0 is the absorbance of the control reaction, and A1 is the absorbance in the presence of a test or standard sample [39].

[2] = Hemolytic assay (HRBC membrane stabilization, anti-inflammatory activity); type: cell-based, human; conditions: human, human red blood cells, 2% suspension, pH 7.4, 2% RBC, 1 hour 37°C; for hemolysis at 1 h, 100 ug/ml: Conc. 100 ug/ml; for hemolysis at 1 h, 200 ug/ml: Conc. 200 ug/ml; for hemolysis at 1 h, 400 ug/ml: Conc. 400 ug/ml; for hemolysis at 1 h, 600 ug/ml: Conc. 600 ug/ml; for hemolysis at 1 h, 800 ug/ml: Conc. 800 ug/ml; for hemolysis at 1 h, 1000 ug/ml: Conc. 1000 ug/ml
Procedure: (§1) The hemolysis essay of the synthesized compounds is summarized in Table 3 and Fig 4; the mean absorption rate of the samples, with isotonic solution Ab, and hemolysis % were calculated with a standard deviation. HRBC and membrane stabilization assay results provide valuable information about the potential anti-inflammatory effects of the newly synthesized pyrimidine carbonitrile derivatives. […] The results for the anti-inflammatory activity are in agreement and homogenous with those obtained from the antioxidant activity of the same compounds, as shown in Table 3. The interconnection between inflammation and oxidative stress plays a vital role in the induction of several chronic diseases, such as diabetes, rheumatoid arthritis, and inflammatory bowel disease—inflammation results in the release of inflammatory mediators and, subsequently, tissue damage. Oxidative stress occurs due to an imbalance between the production of the reactive oxygen species and the ability of the body to neutralize them. Several cellular mechanisms are involved in the anti-inflammatory activity of the tested compounds. […] The cellular mechanism of action was detected by suppression of myeloperoxidase and granulocyte superoxide formation. […] In addition, other mechanisms may explain the anti-inflammatory activity through the inhibitory effect on […] and lipo-oxygenase enzymes.
(§2) The hemolytic assay was performed using the method reported in [37, 40, 41]. Freshly collected human red blood cells were washed thrice with 150 mM NaCl (2500 rpm for 10 minutes). The plasma was removed, and the cells were suspended in phosphate buffer saline (pH 7.4) for 2% RBC concentration. Double-folded dilution concentrations (1000, 800, 600, 400, 200, 100, 50 μg/ml) of the compound were mixed with […] of RBC solutions, and the final reaction mixture volume was measured up to 1 ml by adding PBS. The reaction mixture was then placed in the water bath for 1 hour at 37°C. After incubation, the reaction mixture was centrifuged at 2500 rpm for 15 minutes. The supernatant was collected, and the optical density was measured at 541 nm, keeping the phosphate buffer saline blank. Deionized water was used as a positive control. The experiment was carried out in triplicate, and the mean ± SD was calculated.
(§3) Percentageofhemolysis=Absorbanceofsample−Absorbanceofblank×100/Absorbanceofpositivecontrol

human red blood cells = experiment: as above; type: cell-based; conditions: Conc. 100 ug/ml, 2% RBC, 1 hour 37°C
Procedure: as §1, §2, §3

hERG = conditions: similar compounds listed by Pred-hERG/LabMol, Fig 9 and Fig 10, reference not given; cited from earlier work

## N#CCSC1=NC(c2ccc(C#N)cc2)C(C#N)C(=O)N1 (centres unmarked) [Compound 3, 2-((Cyanomethyl)thio)-4-(4-cyanophenyl)-6-oxo-1,4,5,6-trtrahydropyrimidine-5-carbonitrile]
[1]
  IC50ug/ml (DPPH scavenging): 35.9 µg/mL (≈ 122 µM)
  IC50: 122 µM
[2]
  hemolysis at 1 h, 100 ug/ml: 0.1%
  hemolysis at 1 h, 200 ug/ml: 0.3%
  hemolysis at 1 h, 400 ug/ml: 0.7%
  hemolysis at 1 h, 600 ug/ml: 1.2%
  hemolysis at 1 h, 800 ug/ml: 2.3%

## N#Cc1ccc(C2N=C(Nc3nc4ccccc4s3)NC(=O)C2C#N)cc1 (centres unmarked) [Compound 8, 2-(Benzo[d]thiazol-2-ylamino)-4-(4-cyanophenyl)-6-oxo-1,4,5,6-tetrahydro pyrimidine-5-carbonitrile]
[1]
  IC50ug/ml (DPPH scavenging): 6.21 µg/mL (≈ 16.7 µM)
  IC50: 16.7 µM
Human red blood cells
  Hemolysis %: no hemolysis
[2]
  hemolysis at 1 h, 100 ug/ml: 0%
  hemolysis at 1 h, 200 ug/ml: 0.1%
  hemolysis at 1 h, 400 ug/ml: 0.9%
  hemolysis at 1 h, 600 ug/ml: 1.3%
  hemolysis at 1 h, 800 ug/ml: 3%
  hemolysis at 1 h, 1000 ug/ml: 3.7%

## N#Cc1c(-c2ccccc2)cc(-c2ccccc2)nc1N=c1sc(C(=O)Nc2ccccc2)nn1-c1ccccc1 [CHEMBL3408390]
hERG
  hERG Blocker / Non-Blocker annotation of similar compounds: Blocker

## O=C1O[C@H]([C@@H](O)CO)C(O)=C1O [Ascorbic acid, reference compound]
[1]
  IC50ug/ml (DPPH scavenging): 4.63 µg/mL (≈ 26.3 µM)
  IC50: 26.3 µM

## CC(=O)CSC1=NC(c2ccc(C#N)cc2)C(C#N)C(=O)N1 (centres unmarked) [Compound 4, 4-(4-Cyanophenyl)-6-oxo-2-((2-oxo-propyl)thio)-1,4,5,6-tetrahydro-pyrimidine-5-carbonitrile]
[1]
  IC50ug/ml (DPPH scavenging): 35.31 µg/mL (≈ 113 µM)
  IC50: 113 µM
[2]
  hemolysis at 1 h, 100 ug/ml: 1.3%
  hemolysis at 1 h, 200 ug/ml: 1.8%
  hemolysis at 1 h, 400 ug/ml: 3.6%
  hemolysis at 1 h, 600 ug/ml: 5.9%
  hemolysis at 1 h, 800 ug/ml: 7.8%
  hemolysis at 1 h, 1000 ug/ml: 9.3%

## N#Cc1c(-c2ccccc2)cc(-c2ccccc2)nc1N=C1SC(=C2SC(c3ccccc3)=NN2c2ccccc2)C(=O)N1c1ccccc1 [CHEMBL3408393]
hERG
  hERG Blocker / Non-Blocker annotation of similar compounds: Blocker

## N#Cc1ccc(C2NC(=S)NC(=O)C2C#N)cc1 (centres unmarked) [Compound 1, 4-(4-cyanophenyl)-6-oxo-2-thioxohexahydropyrimidine-5-carbonitrile]
[1]
  IC50ug/ml (DPPH scavenging): 25.13 µg/mL (≈ 98.1 µM)
  IC50: 98.1 µM
[2]
  hemolysis at 1 h, 100 ug/ml: 7.5%
  hemolysis at 1 h, 200 ug/ml: 9.5%
  hemolysis at 1 h, 400 ug/ml: 12%
  hemolysis at 1 h, 600 ug/ml: 12.4%
  hemolysis at 1 h, 800 ug/ml: 13.2%
  hemolysis at 1 h, 1000 ug/ml: 13.9%

## CC(=O)C1=NN(c2ccccc2)C(=C2SC(=Nc3nc(-c4ccccc4)cc(-c4ccccc4)c3C#N)N(c3ccccc3)C2=O)S1 [CHEMBL3408394]
hERG
  hERG Blocker / Non-Blocker annotation of similar compounds: Blocker

## N#Cc1ccc(C2N=C(NNc3ccccc3)NC(=O)C2C#N)cc1 (centres unmarked) [Compound 9, 4-(4-Cyanophenyl)-6-oxo-2-(2-phenylhydrazine)-1,4,5,6-tetrahydro pyrimidine-5-carbonitrile]
[1]
  IC50ug/ml (DPPH scavenging): 212.28 µg/mL (≈ 643 µM)
  IC50: 643 µM
[2]
  hemolysis at 1 h, 100 ug/ml: 2.9%
  hemolysis at 1 h, 200 ug/ml: 4.3%
  hemolysis at 1 h, 400 ug/ml: 5%
  hemolysis at 1 h, 600 ug/ml: 9%
  hemolysis at 1 h, 800 ug/ml: 10%
  hemolysis at 1 h, 1000 ug/ml: 14.4%

## N#Cc1ccc(C2N=C3SCC=C(N)N3C(=O)C2C#N)cc1 (centres unmarked) [Compound 5, 4-Amino-8-(4-cyanophenyl)-6-oxo-7,8-dihydro-2H,6H-pyrimido[2,1-b][1,3]thiazine-7-carbonitrile]
[1]
  IC50ug/ml (DPPH scavenging): 5.62 µg/mL (≈ 18.2 µM)
  IC50: 18.2 µM
[2]
  hemolysis at 1 h, 100 ug/ml: 0.2%
  hemolysis at 1 h, 200 ug/ml: 0.4%
  hemolysis at 1 h, 400 ug/ml: 1.4%
  hemolysis at 1 h, 600 ug/ml: 5.5%
  hemolysis at 1 h, 800 ug/ml: 5.9%
  hemolysis at 1 h, 1000 ug/ml: 7%

## N#Cc1ccc(C2N=C3SCC(=O)N3C(=O)C2C#N)cc1 (centres unmarked) [Compound 6, 7-(4-Cyanophenyl)-3,5-dioxo-2,3,6,7-tetrahydro-5H-thiazolo[3,2-a]pyrimidine-6-carbonitrile]
[1]
  IC50ug/ml (DPPH scavenging): 46.69 µg/mL (≈ 158 µM)
[2]
  hemolysis at 1 h, 100 ug/ml: 2.1%
  hemolysis at 1 h, 200 ug/ml: 3.1%
  hemolysis at 1 h, 400 ug/ml: 4%
  hemolysis at 1 h, 600 ug/ml: 4.6%
  hemolysis at 1 h, 800 ug/ml: 12.8%
  hemolysis at 1 h, 1000 ug/ml: 14.3%

## Cc1cc(C=C2SC(=Nc3ccccc3)NC2=O)c(C)n1-c1ccccc1 [CHEMBL599702]
hERG
  hERG Blocker / Non-Blocker annotation of similar compounds: Non-Blocker

## N#Cc1c(-c2ccccc2)cc(-c2ccccc2)nc1N=C1SC(=C2SC(C(=O)Nc3ccccc3)=NN2c2ccccc2)C(=O)N1c1ccccc1 [CHEMBL3408396]
hERG
  hERG Blocker / Non-Blocker annotation of similar compounds: Blocker

## CSC1=NC(c2ccc(C#N)cc2)C(C#N)C(=O)N1 (centres unmarked) [Compound 2, 4-(4-Cyanophenyl)-2-(methylthio)-6-oxo-1,4,5,6-tetrahydro pyrimidine-5-carbonitrile]
[1]
  IC50ug/ml (DPPH scavenging): 10.09 µg/mL (≈ 37.3 µM)
Human red blood cells
  Hemolysis %: no hemolysis
[2]
  hemolysis at 1 h, 100 ug/ml: 0%
  hemolysis at 1 h, 200 ug/ml: 0.1%
  hemolysis at 1 h, 400 ug/ml: 0.1%
  hemolysis at 1 h, 600 ug/ml: 0.3%
  hemolysis at 1 h, 800 ug/ml: 0.3%
  hemolysis at 1 h, 1000 ug/ml: 2.2%

## CCOC(=O)C1=NN(c2ccccc2)C(=C2SC(=Nc3nc(-c4ccccc4)cc(-c4ccccc4)c3C#N)N(c3ccccc3)C2=O)S1 [CHEMBL3408395]
hERG
  hERG Blocker / Non-Blocker annotation of similar compounds: Blocker
